Results reported in US20240335431A1, “1-H-PYRROLO[2,3-c]PYRIDINE COMPOUNDS” (Acerta Pharma B.V., priority 2023, published 2024).
pIC50: −log10 of the molar value. Where two headings read alike, the source gives them in different places.

How the values were obtained:
MOLM-13 cells = assay: Proliferation assay, MOLM-13 (CellTiter-Glo, 7 days); assay type: cell-based, human
Description: (§1) The anti-proliferative effect of compounds was tested in human leukaemia cell lines. The cell lines […] and MV4; 11 each harbor an MLL translocation expressing the MLL fusion proteins MLL-AF9 and MLL-AF4, respectively. Each also express the wildtype protein from the second allele. OCI-AML3 cells carrying the NPM1c gene mutation were also tested.
(§2) MOLM-13 and HEL cells were cultured in RPMI 1640 (Gibco) supplemented with 10% FBS (Gibco) and 1% Pen/Strep (Gibco). MV4; 11 cells were cultured in IMDM (Gibco) supplemented with 10% FBS (Gibco) and 1% Pen/Strep (Gibco). OCI-AML3 cells were cultured in MEMa (Gibco) supplemented with 20% FBS (Gibco) and 1% Pen/Strep (Gibco).
(§3) To assess proliferative effects, 125 MOLM-13 cells, 300 MV4; 11 cells, 75 OCI-AML3 cells, and 200 HEL cells were seeded in 40 μL media per well in 384-well ViewPlates (Perkin Elmer, 6007480). Cell seeding numbers were chosen based on growth curves to ensure linear growth throughout the experiments. Test compounds were added at 3.16-fold serial dilutions in DMSO from […] and DMSO content was normalized to 0.1%. Cells were incubated for 7 days at 37° C. and 5% CO2. A day 0 plate was seeded for each cell line and used as a standard control.
(§4) To measure cell viability, CellTiter-Glo 2.0 (Promega, G9242) luminescent growth indicator was used. 10 μL CellTiter-Glo reagent was added per well. Plates were placed on a plate shaker for 2 minutes in the dark and left to incubate off the shaker for another 8 minutes in the dark, for a total of 10 minutes. Plates were read using an EnVision plate reader (Perkin Elmer) using the Luminescence aperture and a measurement time of 0.1 second.
(§5) Data were analyzed in Genedata Screener®. IC50 values were determined by plotting % inhibition versus log compound concentration and using a one site dose response model. Raw data signals were normalized using 0.1% DMSO media only as background control, 0.1% DMSO with cells no compound as 100% viability (maximum signal), and day 0 0.1% DM with cells no compound as 0% viability (minimum signal).

HEL cells = assay: Proliferation assay, HEL control cell line (CellTiter-Glo, 7 days); assay type: cell-based, human; conditions: Homo sapiens, HEL, 168 h
Description: as §1, §2, §3, §4, §5

[1] = Human liver microsomes (HLMs) intrinsic clearance assay; assay type: in vitro ADME; conditions: for microsomal CLint at 1 µM: human, microsomes, pH 7.4, HLM CLint
Description: Human liver microsomes (HLMs) were obtained from Corning (UltraPool 150 donors) at a concentration of 20 mg/mL protein. HLMs were stored at −80° C. until use and prior to use, thawed in a 37° C. water bath and then stored on wet ice. DMSO and NADPH were sourced from Solarbio S&T Co Ltd.
2 mL of 10 mM DMSO stock solutions of test compound were added to 198 mL acetonitrile to produce […] concentration. 1325 mL of 20 mg/mL HLM were added to 22260 mL of phosphate buffer to produce the HLM mixture. An 8.334 mg/mL solution of NADPH was prepared in 100 mmol/L pH 7.4 phosphate buffer.
222.5 mL of the HLM mixture and 25 mL of the 10 mM NADPH were added into the incubation plates (1 mL 96 well deep well plate from Thermo). The mixture was vortexed for 10 seconds at 1000 rpm. The incubation plate was pre-warmed in a water bath at 37° C. for 8 minutes. 2.5 mL of the […] stocks of test compound was added to initiate the reaction. The mix was vortexed for 12 seconds at 1000 rpm and incubated at 37° C. The incubation mixture (250 mL) contained 1 mg/mL HLM, 1 mmol/L NADPH and […].
The reaction was quenched by transferring 20 mL of the incubation mixture at 0.5, 5, 10, 15, 20 and 30 minutes into the quenching plate containing 100 mL of cold stop solution (acetonitrile containing internal standards). The plate was vortexed at 800 rpm for 2 minutes.
The quenching plates were centrifuged for 20 minutes at 4000 rpm and 4° C. 40 mL of the supernatant was transferred into a 96-well analysis plate containing 160 mL of water. The analysis plate was shaken at 1000 rpm for 2 minutes and the samples analysed by LC-MS/MS.
Peak areas were determined from extracted ion chromatograms. Percent parent remaining was calculated from peak area of test compound. The slope value, k, was determined by linear regression of the natural logarithm of percent parent remaining versus incubation time. The in vitro half-life (t1/2) was determined from the slope value by the equation: […]
Conversion of the in vitro half-life (min) into in vitro CLint (mL/min/mg proteins) was completed using the equation: […]

hERG [2] = target: T1, hERG (Homo sapiens (Human), UniProt Q12809); assay: hERG assay 2, QPatch II 48X, room temperature; assay type: cell-based; conditions: hERG DUO cell line, top 200 μM
T1 sequence (Q12809 whole entry): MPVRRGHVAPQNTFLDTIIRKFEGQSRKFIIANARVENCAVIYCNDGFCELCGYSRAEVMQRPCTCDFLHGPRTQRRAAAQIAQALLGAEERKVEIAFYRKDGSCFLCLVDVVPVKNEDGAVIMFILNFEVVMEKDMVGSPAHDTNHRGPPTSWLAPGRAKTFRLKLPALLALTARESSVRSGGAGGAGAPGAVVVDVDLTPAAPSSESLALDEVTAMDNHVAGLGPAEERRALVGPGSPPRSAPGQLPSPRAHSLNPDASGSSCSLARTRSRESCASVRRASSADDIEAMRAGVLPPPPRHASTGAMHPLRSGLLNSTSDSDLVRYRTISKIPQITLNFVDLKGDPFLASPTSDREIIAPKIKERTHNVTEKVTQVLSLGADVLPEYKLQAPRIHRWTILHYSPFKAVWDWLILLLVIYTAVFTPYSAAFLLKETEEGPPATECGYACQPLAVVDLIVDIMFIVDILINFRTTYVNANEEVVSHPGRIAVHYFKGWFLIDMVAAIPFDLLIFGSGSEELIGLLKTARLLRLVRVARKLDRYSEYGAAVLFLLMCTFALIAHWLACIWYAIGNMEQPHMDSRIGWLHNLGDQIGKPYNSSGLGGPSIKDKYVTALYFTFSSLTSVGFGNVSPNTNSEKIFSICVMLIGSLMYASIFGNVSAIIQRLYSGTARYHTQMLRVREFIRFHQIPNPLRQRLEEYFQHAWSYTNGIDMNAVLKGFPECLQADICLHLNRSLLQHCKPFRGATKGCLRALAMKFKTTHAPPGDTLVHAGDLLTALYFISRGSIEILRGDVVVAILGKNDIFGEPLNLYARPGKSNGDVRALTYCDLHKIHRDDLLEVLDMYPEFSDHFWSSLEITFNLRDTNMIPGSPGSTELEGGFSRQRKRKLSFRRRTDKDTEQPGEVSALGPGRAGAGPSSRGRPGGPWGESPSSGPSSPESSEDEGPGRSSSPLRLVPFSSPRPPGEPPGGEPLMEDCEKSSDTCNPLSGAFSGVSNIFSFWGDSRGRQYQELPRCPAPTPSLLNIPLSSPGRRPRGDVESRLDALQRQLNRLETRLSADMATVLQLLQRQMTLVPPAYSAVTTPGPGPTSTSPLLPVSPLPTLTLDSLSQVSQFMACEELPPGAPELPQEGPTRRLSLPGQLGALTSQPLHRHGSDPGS
Description: Experiments were performed on the QPatch II 48X (Sophion Biosciences) high throughput patch clamp platform at room temperature and used single hole Qplates. hERG DUO cell line (BSys) was used. The internal patch clamp solution was KF 60 mM, KCl 70 mM, HEPES 10 mM, EGTA 10 mM, and 5 mM Mg ATP (pH7.2). After sealing and whole cell access was gained the external solution (NaCl 140 mM, KCl 4 mM, HEPES 10 mM, CaCl2 2 mM, MgCl2 1 mM, glucose 5 mM (pH 7.4) was applied twice to establish stable baseline currents. An industry standard +40/−40 mV voltage protocol was applied every 15 seconds. All compounds were tested in a 6-point cumulative assay (final DMSO concentration 0.4-2% depending on stock concentration of compounds). Compounds were dispensed from initial 10 mM or 50 mM DMSO stocks after which DMSO dilutions were undertaken with a top concentration of 200 μM tested. Solvent controls were run in all experiments in line with the DMSO % required. Only wells that passed acceptance criteria for this platform were used in this analysis (500 MegaOhm seal resistance and current size >0.2 nA). Analysis was completed in Prism Graphpad to complete a composite IC50, by plotting % inhibition versus log compound concentration and using a log(inhibitor) vs. response—Variable slope.

MV4;11 cells = assay: Proliferation assay, MV4;11 (CellTiter-Glo, 7 days); assay type: cell-based, human; conditions: read-out: MV-4-11 IC50
Description: as §1, §2, §3, §4, §5

hERG [3] = target: T1, hERG; assay: hERG assay 1 (standard), SyncroPatch 384PE; assay type: cell-based; conditions: CHO cells, room temperature, up to 40 uM
Description: Experiments were performed on the SyncroPatch 384PE (Nanion Technologies) high throughput patch clamp platform at room temperature and used medium resistance chips with 4 patch holes per site. hERG-expressing Chinese hamster ovary K1 (CHO) cell line was used in assay-ready format and kept in liquid nitrogen until use. 2 vials of cells (10×10^6 cells per vial) were thawed and added to 20 ml Hepes-buffered saline solution (HBSS). HBSS comprised 140 mM NaCl, 4 mM KCl, 10 mM HEPES and 5 mM Glucose (pH 7.4). The internal patch clamp solution was KF 120 mM, KCl 20 mM, HEPES 10 mM, EGTA 10 mM, and 25 μM Escin (pH 7.2). After the initial sealing process was complete, a seal enhancer solution comprising HBSS supplemented with 10 mM CaCl2 and 1 mM MgCl2 was applied to cells. The external solution was then exchanged (4 times) for external patch clamp solution comprising NaCl 80 mM, KCl 4 mM, HEPES 10 mM, CaCl2 2 mM, MgCl2 1 mM, glucose 5 mM, and NMDG 60 mM (pH7.4). All compounds were dispensed from initial 10 mM DMSO stocks. An industry standard +60/−40 mV voltage protocol was applied every 15 seconds. Compounds were tested in a 6-point cumulative assay (final DMSO concentration 0.33%), with a concentration range of 139 nM to 40 uM. Data were analyzed in Genedata Screener®. IC50 values were determined by plotting % inhibition versus log compound concentration and using a one site dose response model. Only wells that passed acceptance criteria for this platform were used in this analysis (30 MegaOhm seal resistance, Z prime >0.4 and current size >0.2 nA).

OCI-AML3 cells = assay: Proliferation assay, OCI-AML3 (CellTiter-Glo, 7 days); assay type: cell-based, human; conditions: Homo sapiens, OCI-AML-3, 168 h
Description: as §1, §2, §3, §4, §5

[4] = Caco-2 cell monolayers intrinsic permeation assay in the presence of efflux inhibitors; assay type: in vitro ADME; conditions: Caco-2, with efflux inhibitors
Description: Caco-2 cells were obtained from American Type Culture Collection (ATCC). HEPES, penicillin, streptomycin, bovine serum albumin (BSA) were obtained from Beijing Xinjingke Biotechnology Co, Ltd. Fetal bovine serum, Hank's balanced salt solution (HBSS) and non-essential amino acids (NEAA) were purchased from Gibco. Dulbecco's Modified Eagle's Medium (DMEM) was purchased from Corning and MES from Sigma. HTS Transwell-24 permeable supports were purchased from Corning. Zosuquidar and Ko-143 were obtained from MedChemExpress and Benzbromarone from Sigma.
The Caco-2 cell culture medium consisted of DMEM with high glucose and L-glutamine supplemented with 10% FBS, 0.1 mg/mL streptomycin, 100 units of penicillin, 0.6 mg/mL kanamycin sulfate and 1×NEAA. […] culture medium was added to each Transwell insert with 800 mL added to each well of the reservoir. After incubation at 37° C. in 5% CO2 for 1 hour, the plates were ready for seeding.
The cells were cultivated in T-75 flasks at 37° C., 5% CO2, 95% relative humidity. At 80 to 90% confluence, cells were treated with trypsin/EDTA treatment until they became detached. The trypsin/EDTA was inactivated by adding excess serum containing medium. The cell suspension was centrifuged at 120 g for 10 minutes followed by resuspension of the cell pellet in seeding medium at a cell density of 7.92×10^5 cells/mL.
[…] of the resulting cell suspension was added to each well of the Transwell plate and incubated for 14 to 18 days, with medium replaced every other day. After incubation for 14 to 18 days, the cells should have reached confluence and should be tested for electrical resistance using a Millicel Epithelial Volt-Ohm measuring system (Millipore).
The cell monolayers were washed twice with pre-warmed HBSS and incubated at 37° C. for 30 minutes under gentle shaking (480 rpm).
The compound under test was presented as a 10 mM DMSO stock solution. 2 mL of the 10 mM stock was added to 8 mL DMSO to produce a 2 mM stock. 2 mL was added to 398 mL of HBSS containing 10 mM Zosuquidar, 30 mM Benzbromarone and 2 mM KO-143 to make a […] solution.
210 mL of the test compound solution was added to the apical compartment of the Transwell plate, with a 10 mL sample taken to act as the time 0 sample. The wells of the receiver (basolateral) compartment were filled with 800 mL HBSS (containing the efflux inhibitors). The plates were incubated at 37° C. with shaking at 480 rpm for 120 minutes with sampling at 45 and 120 minutes.
At each sampling time (0, 45 and 120 minutes) 10 mL was removed from the apical compartment and add to 90 mL (HBSS containing the efflux inhibitors). 100 mL was removed from each basolateral compartment. 3 volumes of cold acetonitrile containing internal standard was added to each sample and vortex mixed for 10 minutes at 100 rpm. Samples were then centrifuged at 400 rpm for 20 minutes. 50 mL of the supernatant was taken for LC/MS/MS analysis to determine compound concentration.
The apparent permeability (Papp), in units of centimetre per second, were calculated for Caco-2 drug transport using the following equation: […]
Where CR is the concentration of compound in the receiver side at the respective time point, CD is the concentration of compound in the donor side at the respective timepoint. Area is the surface area of the membrane and time is 4500 seconds (75×60 seconds).

| Compound | pIC50 (MOLM-13 cells) | pIC50 (HEL cells) | HLM CLint ([1]; 1 mg/mL HLM, NADPH) [µL/min/mg] | pIC50 (hERG [2]) | pIC50 (MV4;11 cells) | pIC50 (hERG [3]) | pIC50 (OCI-AML3 cells) | pIC50 (MOLM-13 cells; Homo sapiens, MOLM-13, 168 h) | microsomal CLint at 1 µM [1] [µL/min/mg] | pIC50 (MV4;11 cells; Homo sapiens, MV4-11, 168 h) | Papp A→B [4] [×10⁻⁶ cm/s] |
| --- | --- | --- | --- | --- | --- | --- | --- | --- | --- | --- | --- |
| CCN(C(=O)c1cc(F)ccc1-n1c(C)c(C(=O)C2CCN(C(=O)[C@@H]3CCC4(CC4)N3)CC2)c2ccncc21)C(C)C (single isomer, unassigned) [Example 49-1] | 5.64 | < 5.00 | >300 | < 3.70 | 5.53 | < 4.40 |  |  |  |  |  |
| CC(C)c1ccccc1-c1cc(F)ccc1-n1cc(C(=O)C2CCN(C(=O)[C@H]3N[C@@H]4CC[C@H]3C4)CC2)c2ccncc21 [Example 39, (1-((1R,3S,4S)-2-Azabicyclo[2.2.1]heptane-3-carbonyl)piperidin-4-yl)(1-(5-fluoro-2′-isopropyl-[1,1′-biphenyl]-2-yl)-1H-pyrrolo[2,3-c]pyridin-3-yl)methanone] |  | 5.16 |  |  |  |  | 7.33 | 7.19 | 259 | 7.51 |  |
| CC(C)N(C(=O)c1cc(F)ccc1-n1cc(C(=O)C2CN(C(=O)[C@H]3N[C@@H]4CC[C@H]3C4)C2)c2ccnnc21)C(C)C [Example 14, 2-(5-(1-((1R,3S,4S)-2-Azabicyclo[2.2.1]heptane-3-carbonyl)azetidine-3-carbonyl)-7H-pyrrolo[2,3-c]pyridazin-7-yl)-5-fluoro-N,N-diisopropylbenzamide 1·formic acid] |  | < 5.00 |  |  |  |  | 6.20 | 6.32 | 38 | 6.46 |  |
| C[C@@H]1CC[C@H](C)N1C(=O)c1cc(F)ccc1-n1cc(C(=O)C2CCN(C(=O)[C@H]3N[C@@H]4CC[C@H]3C4)CC2)c2ccncc21 [Example 32, (1-((1R,3S,4S)-2-Azabicyclo[2.2.1]heptane-3-carbonyl)piperidin-4-yl)(1-(2-((2R,5S)-2,5-dimethylpyrrolidine-1-carbonyl)-4-fluorophenyl)-1H-pyrrolo[2,3-c]pyridin-3-yl)methanone] |  | < 5.00 |  |  |  |  | 6.56 | 6.81 | 18 | 6.84 | 0.4 |
